Where two headings read alike, the source gives them in different places.
Columns and labels:
[1] = system: blood clot (red blood cells adjacent to the sensor); assay: Glucose depletion at sensors inserted into blood clots, current response followed over time; type: cell-based; conditions: sensor with approximately 138 micrograms racemic D-/L-glyceraldehyde as thin outer coating, control sensors about 2 hour
Protocol: Glucose sensors are inserted into small silicon tubes containing the appropriate biological fluid. The tubes are maintained at about 37 degrees Celsius, and the glucose sensor is monitored.
Antiglycolytic sensors were prepared by modification of control sensors (FREESTYLE NAVIGATOR®) as follows. A coating solution was prepared from 250 mg/mL of a racemic mixture of L-glyceraldehyde and D-glyceraldehyde, and 150 mg/mL in polymer PC-1306 (Biocompatibles, PLC), the former suspended and the latter dissolved in ethanol. The resulting antiglycolytic sensors had approximately 138 micrograms of the racemic mixture of D- and L-glyceraldehydes incorporated as a thin, outer coating. Both these sensors and control sensors (no antiglycolytic agents added) were then inserted into blood clots, and the current response was followed over time.
The depletion is much delayed (up to about 12 hours) in the glyceraldehydes-containing sensors.

[2] = 50 mg/ml boric acid with 150 mg/ml L-glyceraldehyde and 150 mg/mL PC in outer membrane, stress at 56° C. for nine days, nonheparin blood
Protocol: An example of the use of an antiglycolytic sensor containing borate minerals, boric acid or any precursor thereof, is provided by its testing in an in vitro environment. 50 mg/ml boric acid was mixed with 150 mg/ml L-glyceraldehyde and 150 mg/mL PC in 100% ethanol. The sensor was dipped three times with a 10 minute interval. The sensor was then cured overnight, and subjected to stress at 56° C. for nine days and subsequently tested in nonheparin blood.

[3] = Antiglycolytic-modified sensor and control sensor implanted side by side in the arm of a non-diabetic subject; type: in vivo; conditions: FREESTYLE NAVIGATOR sensor with overcoat of about 55 micrograms L-glyceraldehyde, versus control sensor
Protocol: A further example of the use of an antiglycolytic sensor is provided by its use in an in vivo environment. In this example, a control sensor (FREESTYLE NAVIGATOR®) is inserted in the arm of a non-diabetic subject, adjacent to a similar sensor, which has been modified by the addition of an antiglycolytic agent, L-glyceraldehyde. A coating solution was made 200 mg/mL in L-glyceraldehyde, and 150 mg/mL in polymer PC-1306 (Biocompatibles, PLC), both dissolved in ethanol. The FREESTYLE NAVIGATOR® sensor was then modified by dipping twice into this coating solution, yielding an overcoat containing about 55 micrograms of L-glyceraldehyde. […] Glucose readings below 60 mg/dL are not anticipated in non-diabetic subjects, and are therefore considered to be anomalous, reflecting either (a) sensor malfunctions, or more likely (b) local inhomogeneities of glucose concentration (in the vicinity of a wound, for example) wherein the glucose concentration deviates substantially from the systemic value. Such deviations are observed with some regularity in control sensors, but are not observed in sensors modified with L-glyceraldehyde.

O=CC(O)CO (racemic) [glyceraldehydes, racemic mixture of L-glyceraldehyde and D-glyceraldehyde]
glucose depletion period [1]: up to 12 hours

OB(O)O [boric acid]
high background current after stress [2]: significantly reduced | high background current after stress ([2]; listed as borate): reduced significantly

O=C[C@@H](O)CO [L-glyceraldehyde]
large negative deviation in signal (values well below 60 mg/dL) during the night [3]: not observed
